Results as given in patent publication USRE48253E1, “Methotrexate adjuvants to reduce toxicity and methods for using the same” (Tosk, Inc., priority 2008, dated 2020).
Like-named read-outs stand apart in the source and are kept apart here.

Experiments:
[1] = tested on: AS283 human lymphoma xenografts; assay: Mouse Study V: xenograft with AS283 implants; format: in vivo, C.B.-17 SCID mice; settings: p=1.0
Description: Six-week-old male SCID mice were implanted with fragments of AS283 human lymphoma tumors. The tumors were allowed to reach 75-198 mg in weight (75-198 mm^3 in size) before the start of treatment. The experiment consisted of two treatment groups and one vehicle-treated control group, with ten animals per group, for a total of 30 mice on the first day of treatment.
TK-112690 was administered by ip injection [twice every 2 days for 5 injections with six hour interval (q6h×2, q2d×5)] at a dosage of 30 mg/kg/injection. MTX was administered by ip injection q2d×5 at a dosage of 5.0 mg/kg/injection three hours after the TK-112690 injection. The control group was treated with both vehicles, which were administered on the corresponding compound schedules.
Six-week-old male C.B.-17 SCID mice were acclimated in the laboratories for seven days prior to experimentation. Thirty-to-forty mg fragments of AS283 human lymphoma tumor were implanted sc in mice near the right flank using a 12-gauge trocar needle and allowed to grow. […]
The sc tumors were measured and the animals were weighed thrice weekly starting the day of the first treatment. Tumor volume was determined by caliper measurements (mm) and using the formula for an ellipsoid sphere: L×W^2/2=mm^3, where L and W refer to the larger and smaller perpendicular dimensions collected at each measurement. […]

[2] = molecular target: mouse small intestinal UPase enzyme (Mus musculus, UniProt P52624); assay: UPase inhibition in mouse small intestinal tissue homogenate (HPLC of uracil); format: biochemical
Chain of mouse small intestinal UPase enzyme (P52624 whole entry, looked up): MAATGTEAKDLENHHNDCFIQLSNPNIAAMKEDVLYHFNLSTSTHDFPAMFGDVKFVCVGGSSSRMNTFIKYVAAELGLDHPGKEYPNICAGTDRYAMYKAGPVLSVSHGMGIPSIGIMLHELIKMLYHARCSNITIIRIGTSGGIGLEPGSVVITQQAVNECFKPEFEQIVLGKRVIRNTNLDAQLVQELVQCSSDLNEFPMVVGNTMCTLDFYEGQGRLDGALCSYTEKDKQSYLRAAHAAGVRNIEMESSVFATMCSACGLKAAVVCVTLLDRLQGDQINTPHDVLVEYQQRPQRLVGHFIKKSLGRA
Description: A range of TK-112690 doses were studied for the their ability to prevent metabolic breakdown of uridine through the in vitro inhibition of mouse and human small intestinal UPase enzyme. UPase activity was determined by HPLC analysis using UV detection of uracil concentration (UPase catabolizes uridine into uracil and ribose-1-phosphate). The UPase enzyme material was prepared from homogenized mouse and human being small intestinal tissue. TK-112690 was dissolved in water (50 mg/ml) and analyzed for UPase inhibition in aqueous solution containing 5 mM uridine, 0.01 M Tris, 0.01 M phosphate, 1 mM EDTA, and 1 mM DTT. Reactions were performed at 37° C. at pH of 7.3.
The aim of this study was to evaluate TK-112690 […] as an inhibitor of uridine phosphorylase (UPase) enzyme activity. The range of TK-112690 doses studied for ability to prevent metabolic breakdown of uridine, through the in vitro inhibition of mouse and human small intestinal UPase enzyme, was 0, 0.1, 0.5, 1, 5, 10, 50, 100, 500, 1000, 5000 and 10000 μM). Detection of UPase activity was determined by HPLC analysis using UV detection of uracil concentration (UPase catabolizes uridine into uracil and ribose-1-phosphate).
The UPase enzyme material was prepared from homogenized mouse and human being small intestinal tissue. TK-112690 was dissolved in water (50 mg/ml) and analyzed for UPase inhibition in aqueous solution containing 5 mM uridine, 0.01 M Tris, 0.01 M phosphate, 1 mM EDTA, and 1 mM DTT. Reactions were performed at 37° C. at pH of 7.3.
TK-11260 inhibition of mouse and human UPase was analyzed by reverse phase HPLC using UV detection. HPLC analysis was performed at ambient temperature with a Water 2695 Alliance system equipped with a C18 ECONOSIL 5 U ALLtech column. 20 μl of UPase reaction samples were auto-injected onto column. Mobile phase consisted of water eluting for first 2.5 ml and acetonitrile gradient to 100% in 12.5 ml (flow rate 0.5 ml/min). The outlet fluent was monitored by UV absorption in the range of 240-320 nm. UPase enzymatic activity was based on the AUC of the uracil peaks.

Cc1cn2c(nc1=O)O[C@H]1[C@H](O)[C@@H](CO)O[C@H]12 [TK-112690, 2,2′-anhydro-5-methyluridine]
tumor volumes Day 21, MTX+TK-112690 vs MTX [1]: no statistical difference | IC50 ([2]; 5 mM uridine, 37° C., pH 7.3, read-out: IC50, mouse small intestinal (murine) UPase): 12.5 µM | IC50 ([2]; Table 3, murine UPase, test method of Experiment IX, read-out: UPase IC50): < 100 µM
